{"source": "patent US20250044299A1", "about": "“PROTEIN STABILITY ASSAY” (Medicines Discovery Catapult Limited, priority 2021, published 2025)", "format_in_all_cases": "binding", "key": {"p38α MAPK": {"biological_target": "p38α MAPK (Homo sapiens, UniProt Q16539)", "sequence (Q16539 whole entry)": "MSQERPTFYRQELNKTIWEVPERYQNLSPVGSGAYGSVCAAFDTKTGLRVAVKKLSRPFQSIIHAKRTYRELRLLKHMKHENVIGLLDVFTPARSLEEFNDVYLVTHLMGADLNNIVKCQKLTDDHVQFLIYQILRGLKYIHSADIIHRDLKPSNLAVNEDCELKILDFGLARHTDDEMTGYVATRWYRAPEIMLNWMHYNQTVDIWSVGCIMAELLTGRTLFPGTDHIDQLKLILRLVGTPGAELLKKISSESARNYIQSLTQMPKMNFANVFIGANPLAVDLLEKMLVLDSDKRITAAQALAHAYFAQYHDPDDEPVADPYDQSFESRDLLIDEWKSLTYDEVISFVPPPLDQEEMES", "assay": "Protein stability assay screening study, AlphaLISA endpoint, HEK293T cell lysate, compound concentration response at fixed AEA or EA (Example 2)", "design": "endogenous in cells; host or cells: HEK293T", "settings": "fixed 22% AEA or 20% EA, 10-point concentration response", "protocol": "The fixed denaturant concentration to be added was made up as a 5/4 stock so that when 8 μl of denaturant was added to 2 μl lysate the final volume was 10 μl and the denaturant concentrations were as listed above. After compound/lysate incubation was complete 8 μl of the prepared AEA or EA stock was added to each well of separate plates, the contents of the plates were settled by a short pulse spin, sealed, and then incubated with shaking at 800 rpm for 120 minutes on a heated plate shaker set to 21° C. For signal detection an antibody detection mix was made up no more than 20 minutes prior to use. […] 10 μl of antibody bead mix was added to each test well, the contents of the plates were settled by a short pulse spin, sealed, shaken gently for 1-2 minutes, wrapped in foil, and then incubated for 16-18 hours in the dark. After incubation the plates were read on a fluorescence detecting plate reader (Excitation 680 nm, Emission 615 nm) to determine well signals. Concentration response curves were produced from normalised data using the Genedata Screener data analysis package, and EC50 values generated to allow data comparison between the two denaturant types."}, "CDK9": {"biological_target": "T1, CDK9 (Homo sapiens, UniProt P50750)", "T1 construct": "Lysate from U-2 OS cells grown in continuous culture; endogenous in cells; b320 says HEK293T", "T1 sequence (P50750 whole entry)": "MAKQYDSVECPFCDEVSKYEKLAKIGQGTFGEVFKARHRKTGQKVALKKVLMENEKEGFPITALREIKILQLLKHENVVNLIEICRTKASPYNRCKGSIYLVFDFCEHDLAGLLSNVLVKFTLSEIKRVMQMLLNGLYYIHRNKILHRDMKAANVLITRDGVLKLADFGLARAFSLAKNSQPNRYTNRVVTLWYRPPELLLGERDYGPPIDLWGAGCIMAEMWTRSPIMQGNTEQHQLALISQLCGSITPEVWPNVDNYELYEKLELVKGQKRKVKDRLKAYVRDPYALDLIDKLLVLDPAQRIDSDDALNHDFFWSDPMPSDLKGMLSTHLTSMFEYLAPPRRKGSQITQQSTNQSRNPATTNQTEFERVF", "T1 sequence (O60563 whole entry partner)": "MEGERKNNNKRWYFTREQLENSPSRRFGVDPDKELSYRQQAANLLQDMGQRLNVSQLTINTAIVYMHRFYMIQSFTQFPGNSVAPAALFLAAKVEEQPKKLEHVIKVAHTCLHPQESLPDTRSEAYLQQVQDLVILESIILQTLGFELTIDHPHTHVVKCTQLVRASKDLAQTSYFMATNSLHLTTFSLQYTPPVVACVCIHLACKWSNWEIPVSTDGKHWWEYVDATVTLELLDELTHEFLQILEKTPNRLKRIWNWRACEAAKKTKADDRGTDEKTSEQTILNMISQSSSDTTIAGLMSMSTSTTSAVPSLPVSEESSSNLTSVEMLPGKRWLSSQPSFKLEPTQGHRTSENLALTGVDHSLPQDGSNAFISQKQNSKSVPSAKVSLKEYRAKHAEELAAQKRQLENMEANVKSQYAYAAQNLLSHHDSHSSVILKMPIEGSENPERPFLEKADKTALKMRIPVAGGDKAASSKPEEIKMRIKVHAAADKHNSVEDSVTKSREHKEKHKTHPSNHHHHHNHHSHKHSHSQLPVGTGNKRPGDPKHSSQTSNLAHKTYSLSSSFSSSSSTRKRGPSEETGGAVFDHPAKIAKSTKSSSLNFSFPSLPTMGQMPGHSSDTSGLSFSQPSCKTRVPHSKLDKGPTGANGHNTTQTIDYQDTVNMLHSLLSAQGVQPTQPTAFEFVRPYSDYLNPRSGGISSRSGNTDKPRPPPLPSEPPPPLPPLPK", "assay": "Protein stability assay with Western blot endpoint, cell lysate, AEA titration (Example 5)", "settings": "100 μM compound as printed, vs DMSO", "protocol": "(§1) Lysate from U-2 OS cells grown in continuous culture at 5% CO2/37° C. in full growth media (RPMI (Gibco 11835-063), 10% FCS (Gibco F7524) 1% Glutamax (Gibco 35050-061)) was produced by growing cells in T175 flasks to 85% confluence, removing from the surface using 3 ml Tryple Select (Gibco 12563011), centrifuging (1000 rpm for 4 minutes) to pellet, washing cell pellet two times in DPBS (Gibco 14190-094), resuspending 1 ml of DPBS (Gibco 14190-094) containing 1× HALT Protease and Phosphatase inhibitor cocktail (Thermo Scientific 78440) per flask and lysing by three cycles of a liquid nitrogen freeze followed by thawing at room temperature. […]\nLysate/compound mixes were incubated for 30-60 minutes at room temperature. While incubating, fresh 100% AEA (Acetone (11443733) Ethanol (10437341) and Acetic Acid (10365020), all from Fisher Scientific in a ratio of 50:50:0.1) denaturant was made in a glass bottle ready for use. An aliquot of 100% AEA was diluted to 50% in DPBS (Gibco 14190-094) ready to produce either titration curves or a fixed concentration of denaturant. […]"}, "AKT1": {"biological_target": "T2, AKT1 (Homo sapiens, UniProt P31749)", "T2 construct": "endogenous in cells; host or cells: HEK293T", "T2 sequence (P31749 whole entry)": "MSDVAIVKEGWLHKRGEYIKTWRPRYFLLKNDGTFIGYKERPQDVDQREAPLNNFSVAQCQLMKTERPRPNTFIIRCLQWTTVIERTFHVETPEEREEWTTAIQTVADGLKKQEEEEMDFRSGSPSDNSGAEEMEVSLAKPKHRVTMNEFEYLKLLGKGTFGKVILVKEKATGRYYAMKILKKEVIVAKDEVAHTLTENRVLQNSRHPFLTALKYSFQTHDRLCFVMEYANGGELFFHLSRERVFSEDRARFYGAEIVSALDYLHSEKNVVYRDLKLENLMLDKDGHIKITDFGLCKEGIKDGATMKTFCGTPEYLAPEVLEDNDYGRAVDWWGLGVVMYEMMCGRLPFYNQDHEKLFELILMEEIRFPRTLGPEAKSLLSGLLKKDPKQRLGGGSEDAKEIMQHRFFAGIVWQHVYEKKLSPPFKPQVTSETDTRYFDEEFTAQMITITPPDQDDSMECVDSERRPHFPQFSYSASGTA", "assay": "Protein stability assay, AlphaLISA endpoint, HEK293T cell lysate, EA (Example 8)", "protocol": "as §1, with “HEK293T” for “U-2 OS”, “in” for “in T175”, “resuspending in” for “resuspending”\nTo run the protein stability assay, an aliquot of HEK293T cell lysate at 4 μg/μl was thawed at room temperature and 2 μl added to each well of a 384-well White ProxiPlate (Perkin Elmer 6008280) containing […] MK-2206 (LKT Laboratories M400220) or an equivalent volume of DMSO dosed using the Labcyte ECHO. […] While incubating, fresh 100% EA (Ethanol (10437341) and Acetic Acid (10365020), all from Fisher Scientific in a ratio of 100:0.1) denaturant was made in a glass bottle ready for use. An aliquot of 100% EA was diluted to 50% in DPBS (Gibco 14190-094) ready to produce titration curves of denaturant. […]"}}}
{"molecule": "Cc1c(F)cc(C(=O)NC2CC2)cc1-c1c(F)cn2c(C(C)(C)C)nnc2c1F", "note": "[AL 8697]", "values": [{"measurement": "stabilisation of protein, compound concentration response curves", "setting": "p38α MAPK", "value": "stabilisation of protein in a dose dependent manner"}]}
{"molecule": "Cc1ncc(-c2ccnc(Nc3ccc(S(C)(=O)=O)cc3)n2)n1C(C)C", "note": "[AZD5438]", "values": [{"measurement": "stabilisation of CDK9 protein against chemical denaturation", "setting": "CDK9", "value": "increased stabilisation of CDK9 protein"}]}
{"molecule": "NC1(c2ccc(-c3nc4ccn5c(=O)[nH]nc5c4cc3-c3ccccc3)cc2)CCC1", "note": "[MK-2206]", "values": [{"measurement": "stabilisation of AKT1 protein (shift in protein denaturation curves)", "setting": "AKT1; 10 μM compound, EA titration, vs DMSO only", "value": "stabilisation of AKT1 protein"}, {"measurement": "AKT1 protein stabilisation, concentration response curve", "setting": "AKT1; fixed 18% EA", "value": "AKT1 protein stabilisation by MK-2206 in a dose dependent manner"}]}
{"molecule": "O=c1ncn2nc(Sc3ccc(F)cc3F)ccc2c1-c1c(Cl)cccc1Cl", "note": "[VX 745]", "values": [{"measurement": "stabilisation of protein, compound concentration response curves", "setting": "p38α MAPK", "value": "stabilisation of protein in a dose dependent manner"}]}
